One assay deals with c-Kit kinase (Homo sapiens, UniProt P10721). The assay can be described thus: c-Kit kinase biochemical activity assay (AlphaScreen, biotin-(E4Y)10 phosphorylation). The note with it: 100 μM ATP; read-out: Biochemical Inhibition IC50 Kit. The essentials: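 AlphaScreen read-out (streptavidin donor, anti-phosphotyrosine PY20 acceptor beads, EDTA stop) of c-Kit activity. Reaction: 0.75 ng kinase, 100 µM ATP, 30 nM biotin-(E4Y)10, 25 mM HEPES pH 7.5, 2 mM MgCl2, 2 mM MnCl2, 5% DMSO, 1 h room temperature. IC50 derived over an 8-point, two-fold dilution series.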
Background: In Alpha technology, singlet oxygen from a donor bead excites a nearby acceptor bead.

A further assay concerns the target T1, BCR-FMS BaF3 cells (Homo sapiens, UniProt P07333).
T1 construct: fused on or other part: P11274 (Breakpoint cluster region protein)
T1 sequence (P07333 582-910): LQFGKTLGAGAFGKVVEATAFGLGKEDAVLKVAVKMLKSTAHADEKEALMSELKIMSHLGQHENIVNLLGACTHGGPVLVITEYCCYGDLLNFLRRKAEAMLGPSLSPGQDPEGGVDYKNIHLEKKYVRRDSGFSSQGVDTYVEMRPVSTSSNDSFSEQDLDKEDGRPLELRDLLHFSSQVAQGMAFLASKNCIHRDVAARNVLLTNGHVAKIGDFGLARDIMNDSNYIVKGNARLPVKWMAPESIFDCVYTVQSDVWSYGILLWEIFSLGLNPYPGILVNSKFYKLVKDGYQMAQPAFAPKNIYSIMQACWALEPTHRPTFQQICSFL
The assay is described as follows: BaF3 BCR-FMS cell proliferation assay (ATPlite). In kind it is cell-based. The note with it: read-out: Inhibition of Cell Proliferation IC50, BCR/BaF3 Fms. In a few lines:
(§1)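 Proliferation was run for 3 days at 37 °C against 8-point 1:3 titrations with 10 μM as the top final concentration. Seeding was 10,000 cells/well for BaF3 BCR-fusion lines, grown without IL-3, and 25,000 cells/well for MV-4-11. IC50 was derived from ATPlite luminescence read as cell number.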
In general terms: ATP-based viability assays read luminescence as a measure of living cells.

A further assay concerns the target T2, BCR-NTRK2 BaF3 cells (Homo sapiens, UniProt Q16620).
T2 construct: fused on or other part: P11274 (Breakpoint cluster region protein)
The assay is described as follows: BaF3 BCR-NTRK2 cell proliferation assay (ATPlite). The class given is cell-based. The note with it: read-out: Inhibition of Cell Proliferation IC50, BCR/BaF3 TrkB. In a few lines:
as §1

pIC50: −log10 of the molar value.

Sequence of c-Kit kinase (P10721 26-976): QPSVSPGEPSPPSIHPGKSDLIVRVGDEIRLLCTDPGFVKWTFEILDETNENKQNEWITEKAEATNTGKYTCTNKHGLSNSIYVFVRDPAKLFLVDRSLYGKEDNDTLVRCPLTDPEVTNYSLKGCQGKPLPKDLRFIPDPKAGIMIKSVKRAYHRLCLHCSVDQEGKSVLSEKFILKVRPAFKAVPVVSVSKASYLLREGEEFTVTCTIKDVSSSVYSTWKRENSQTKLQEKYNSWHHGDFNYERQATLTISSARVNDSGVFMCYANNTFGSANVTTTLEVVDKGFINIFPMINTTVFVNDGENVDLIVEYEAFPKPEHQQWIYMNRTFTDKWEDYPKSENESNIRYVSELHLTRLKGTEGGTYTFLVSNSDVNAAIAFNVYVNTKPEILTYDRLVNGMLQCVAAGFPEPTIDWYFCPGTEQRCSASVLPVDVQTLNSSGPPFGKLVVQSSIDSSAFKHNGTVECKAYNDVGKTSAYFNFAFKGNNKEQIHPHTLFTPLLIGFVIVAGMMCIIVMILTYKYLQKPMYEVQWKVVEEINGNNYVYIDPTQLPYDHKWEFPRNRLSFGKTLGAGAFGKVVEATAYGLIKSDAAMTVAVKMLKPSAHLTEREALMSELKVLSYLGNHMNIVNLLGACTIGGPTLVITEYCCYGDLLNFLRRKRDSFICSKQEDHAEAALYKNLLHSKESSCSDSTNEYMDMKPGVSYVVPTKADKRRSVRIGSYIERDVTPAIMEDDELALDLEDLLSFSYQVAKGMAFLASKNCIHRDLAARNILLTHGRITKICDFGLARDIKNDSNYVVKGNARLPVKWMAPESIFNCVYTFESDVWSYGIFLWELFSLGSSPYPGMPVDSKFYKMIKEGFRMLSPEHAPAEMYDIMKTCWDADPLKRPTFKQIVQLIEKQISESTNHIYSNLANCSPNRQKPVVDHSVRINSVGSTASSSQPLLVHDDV
T2 sequence (Q16620 538-807): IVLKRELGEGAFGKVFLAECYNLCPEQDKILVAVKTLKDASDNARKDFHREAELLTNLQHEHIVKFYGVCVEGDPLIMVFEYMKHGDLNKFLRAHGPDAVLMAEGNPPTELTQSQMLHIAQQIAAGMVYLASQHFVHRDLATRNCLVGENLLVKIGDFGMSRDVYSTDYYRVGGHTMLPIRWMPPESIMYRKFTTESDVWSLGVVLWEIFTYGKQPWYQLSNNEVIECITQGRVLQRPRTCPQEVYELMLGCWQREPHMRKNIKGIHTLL

`CCOc1ccc(Nc2ccc(C(=O)c3c[nH]c4ncnc(OC)c34)c(F)n2)cn1` [Compound P-4024, [6-(6-Ethoxy-pyridin-3-ylamino)-2-fluoro-pyridin-3-yl]-(4-methoxy-7H-pyrrolo[2,3-d]pyrimidin-5-yl)-methanone]: the pIC50 at c-Kit kinase was over 6.00; at BCR-FMS BaF3 cells it was over 7.00; on BCR-NTRK2 BaF3 cells it was over 7.00.
For `CCOc1ncnc2[nH]cc(C(=O)c3ccc(Nc4ccc(OC)nc4)nc3F)c12` [Compound P-4025, (4-Ethoxy-7H-pyrrolo[2,3-d]pyrimidin-5-yl)-[2-fluoro-6-(6-methoxy-pyridin-3-ylamino)-pyridin-3-yl]-methanone], the pIC50 was under 6.00 at c-Kit kinase, over 7.00 at BCR-FMS BaF3 cells and over 7.00 at BCR-NTRK2 BaF3 cells.
On to `CCOc1ccc(Nc2ccc(Cc3c[nH]c4ncnc(C5CC5)c34)c(F)n2)cn1` [Compound P-4026, [5-(4-Cyclopropyl-7H-pyrrolo[2,3-d]pyrimidin-5-ylmethyl)-6-fluoro-pyridin-2-yl]-(6-ethoxy-pyridin-3-yl)-amine], for which the pIC50 is over 6.00 at c-Kit kinase, over 8.00 at BCR-FMS BaF3 cells and over 8.00 on BCR-NTRK2 BaF3 cells.
Regarding `CCOc1ccc(Nc2ccc(C(=O)c3c[nH]c4ncnc(C5CC5)c34)c(F)n2)cn1` [Compound P-4027, (4-Cyclopropyl-7H-pyrrolo[2,3-d]pyrimidin-5-yl)-[6-(6-ethoxy-pyridin-3-ylamino)-2-fluoro-pyridin-3-yl]-methanone], the figures for the pIC50 on c-Kit kinase, on BCR-FMS BaF3 cells and on BCR-NTRK2 BaF3 cells were over 7.00, over 7.00 and over 8.00, respectively.
Consider `CCc1ccc(Nc2ccc(Cc3c[nH]c4ncnc(C5CC5)c34)c(F)n2)cn1` [Compound P-4028, [5-(4-Cyclopropyl-7H-pyrrolo[2,3-d]pyrimidin-5-ylmethyl)-6-fluoro-pyridin-2-yl]-(6-ethyl-pyridin-3-yl)-amine], for which the pIC50 at c-Kit kinase was over 7.00; on BCR-FMS BaF3 cells, over 8.00; at BCR-NTRK2 BaF3 cells, over 8.00.
Regarding `CCc1ccc(Nc2ccc(C(=O)c3c[nH]c4ncnc(C5CC5)c34)c(F)n2)cn1` [Compound P-4029, (4-Cyclopropyl-7H-pyrrolo[2,3-d]pyrimidin-5-yl)-[6-(6-ethyl-pyridin-3-ylamino)-2-fluoro-pyridin-3-yl]-methanone], the pIC50 at c-Kit kinase was over 7.00; at BCR-FMS BaF3 cells, over 7.00; at BCR-NTRK2 BaF3 cells, over 8.00.
Turning to `Cc1ccc(Nc2ccc(Cc3c[nH]c4ncnc(C5CC5)c34)c(F)n2)cn1` [Compound P-4030, [5-(4-Cyclopropyl-7H-pyrrolo[2,3-d]pyrimidin-5-ylmethyl)-6-fluoro-pyridin-2-yl]-(6-methyl-pyridin-3-yl)-amine], the pIC50 on c-Kit kinase is over 6.00; at BCR-FMS BaF3 cells it was over 8.00; at BCR-NTRK2 BaF3 cells, over 7.00.
`Cc1ccc(Nc2ccc(C(=O)c3c[nH]c4ncnc(C5CC5)c34)c(F)n2)cn1` [Compound P-4031, (4-Cyclopropyl-7H-pyrrolo[2,3-d]pyrimidin-5-yl)-[2-fluoro-6-(6-methyl-pyridin-3-ylamino)-pyridin-3-yl]-methanone]: the pIC50 on c-Kit kinase was over 7.00; on BCR-FMS BaF3 cells it was over 7.00; on BCR-NTRK2 BaF3 cells, over 8.00.
Take `CCOc1ccc(Nc2ccc(C(=O)c3c[nH]c4ncnc(C)c34)c(F)n2)cn1` [Compound P-4032, [6-(6-Ethoxy-pyridin-3-ylamino)-2-fluoro-pyridin-3-yl]-(4-methyl-7H-pyrrolo[2,3-d]pyrimidin-5-yl)-methanone]: the pIC50 at c-Kit kinase, on BCR-FMS BaF3 cells and at BCR-NTRK2 BaF3 cells was over 7.00 in each case.
On to `CCn1cc(Nc2ccc(Cc3c[nH]c4ncnc(C5CC5)c34)c(F)n2)cn1` [Compound P-4036, [5-(4-Cyclopropyl-7H-pyrrolo[2,3-d]pyrimidin-5-ylmethyl)-6-fluoro-pyridin-2-yl]-(1-ethyl-1H-pyrazol-4-yl)-amine], for which the pIC50 on c-Kit kinase is over 6.00; at BCR-FMS BaF3 cells it was over 7.00; on BCR-NTRK2 BaF3 cells, over 7.00.
Turning to `Cc1cncc(Nc2ccc(Cc3c[nH]c4ncnc(C5CC5)c34)c(F)n2)c1` [Compound P-4038, [5-(4-Cyclopropyl-7H-pyrrolo[2,3-d]pyrimidin-5-ylmethyl)-6-fluoro-pyridin-2-yl]-(5-methyl-pyridin-3-yl)-amine], the pIC50 at c-Kit kinase was over 6.00; at BCR-FMS BaF3 cells, over 7.00; at BCR-NTRK2 BaF3 cells, over 6.00.
Take `Cc1cncc(Nc2ccc(C(=O)c3c[nH]c4ncnc(C5CC5)c34)c(F)n2)c1` [Compound P-4039, (4-Cyclopropyl-7H-pyrrolo[2,3-d]pyrimidin-5-yl)-[2-fluoro-6-(5-methyl-pyridin-3-ylamino)-pyridin-3-yl]-methanone]: the values for the pIC50 on c-Kit kinase, at BCR-FMS BaF3 cells and at BCR-NTRK2 BaF3 cells were over 6.00, over 7.00 and over 7.00, respectively.
For `Fc1nc(NC2CCC(F)(F)CC2)ccc1Cc1c[nH]c2ncnc(NCC(F)(F)F)c12` [Compound P-4128, 5-[[6-[(4,4-difluorocyclohexyl)amino]-2-fluoro-3-pyridyl]methyl]-N-(2,2,2-trifluoroethyl)-7H-pyrrolo[2,3-d]pyrimidin-4-amine], the pIC50 on c-Kit kinase was under 6.00; at BCR-FMS BaF3 cells, over 7.00; on BCR-NTRK2 BaF3 cells, over 7.00.
As for `Fc1nc(NC2CCC(F)(F)CC2)ccc1Cc1c[nH]c2ncnc(NC3CC3)c12` [Compound P-4129, N-cyclopropyl-5-[[6-[(4,4-difluorocyclohexyl)amino]-2-fluoro-3-pyridyl]methyl]-7H-pyrrolo[2,3-d]pyrimidin-4-amine], the pIC50 was over 6.00 on c-Kit kinase, over 7.00 on BCR-FMS BaF3 cells and over 7.00 on BCR-NTRK2 BaF3 cells.
With `Fc1nc(Nc2ccc(C3CC3)nc2)ccc1Cc1c[nH]c2ncnc(NCC(F)(F)F)c12` [Compound P-4130, 5-[[6-[(6-cyclopropyl-3-pyridyl)amino]-2-fluoro-3-pyridyl]methyl]-N-(2,2,2-trifluoroethyl)-7H-pyrrolo[2,3-d]pyrimidin-4-amine], the pIC50 is over 6.00 on c-Kit kinase, over 8.00 on BCR-FMS BaF3 cells and over 8.00 on BCR-NTRK2 BaF3 cells.

These data come from patent US8901118B2, “Compounds and methods for kinase modulation, and indications therefor” (Plexxikon Inc., priority 2010, dated 2014).
